These results are taken from patent EP4094756A1 (priority 2021, dated 2022).

The test system of data set [1] is VSV-ΔG SARS CoV-2 S pseudovirus. It counts as cell-based.
The test system of a further data set is SARS CoV-2. It counts as cell-based.
The nature of the next data set: in vitro. The conditions noted are these: monkey, vero cells.
The conditions of data set [2]: human, in vivo, iv; cited from earlier work.
A short description of data set [3]: MTT assay (cell survival). The conditions noted are these: monkey, vero cells. (Formazan colour is commonly taken as a measure of viable cells.)
Procedure: (§1) Also, controls (solvent, Staurosporin (1 µM)) were prepared. Supernatants of cells were removed and substances applied for 8h, 24h and 48h at 37°C. • On day 2-4: fresh MTT [3-(4,5-Dimethylthiazol-2yl)-2,5-diphenyl-tetrazolium-bromid] was diluted in PBS to a final concentration of 5 mg/ml and 25 µl/well of MTT-solution were directly added to the wells and incubated for 1 h at 37°C. • MTT supernatant was removed and cells were lysed by 50 µl/well of 100 % DMSO and incubated for 1-5 minutes at room temperature. • Measurements were done at 562 nm in a photometer and % cell survival were calculated as = 100 × OD (sample) / OD (control).

Where two headings read alike, the source gives them in different places.

Procedure for in vitro: as §1

For the molecule `CC(C)=CCC[C@]1(C)[C@@H](CC=C(C)C)C[C@]2(CC=C(C)C)C(=O)C(CC=C(C)C)=C(O)[C@@]1(C(=O)C(C)C)C2=O` [Hyperforin, hyperforin, reference compound], the “impact on the VSV pseudovirus” value in data set [1] is reported as “did not have comparable impact”.
Regarding `Cc1cc(O)c2c(=O)c3c(O)cc(O)c4c5c(O)cc(O)c6c(=O)c7c(O)cc(C)c8c1c2c(c34)c(c78)c65` [Hypericin, hypericin], the “inhibition of the VSV pseudovirus” value in data set [1] was “clearly inhibited”. Also, the “viral load in diseased cells (PFU/ml)” value in the data set on SARS CoV-2 is recorded as “dramatically lowers the viral load”. The same molecule returned an MNTC in “in vitro” of 1 µg/mL. Further, the “initial peak plasma levels” value in data set [2] was 29.5 ng/mL.
For the molecule `Oc1cc(O)c2c(c1)O[C@H](c1ccc(O)c(O)c1)[C@H](O)[C@H]2c1c(O)cc(O)c2c1O[C@H](c1ccc(O)c(O)c1)[C@H](O)[C@H]2c1c(O)cc(O)c2c1O[C@H](c1ccc(O)c(O)c1)[C@H](O)C2` [Procyanidin C1, reference compound], the “effect on the VSV pseudovirus” value in data set [1] was “no significant inhibition”. The molecule further gave an MNTC in data set [3] of 50 µM.
In the case of `Cc1cc(O)c2c(=O)c3c(O)cc(O)c4c5c(O)cc(O)c6c(=O)c7c(O)cc(CO)c8c1c2c(c34)c(c65)c78` [Pseudohypericin, pseudohypericin], the “inhibition of the VSV pseudovirus” value in data set [1] (1µg/ml) is given as “clearly inhibited”. In data set [3], this molecule came in with an MNTC of 1 µg/mL.
